Biological target: hCB1R (Homo sapiens, UniProt P21554)
Sequence (P21554 whole entry): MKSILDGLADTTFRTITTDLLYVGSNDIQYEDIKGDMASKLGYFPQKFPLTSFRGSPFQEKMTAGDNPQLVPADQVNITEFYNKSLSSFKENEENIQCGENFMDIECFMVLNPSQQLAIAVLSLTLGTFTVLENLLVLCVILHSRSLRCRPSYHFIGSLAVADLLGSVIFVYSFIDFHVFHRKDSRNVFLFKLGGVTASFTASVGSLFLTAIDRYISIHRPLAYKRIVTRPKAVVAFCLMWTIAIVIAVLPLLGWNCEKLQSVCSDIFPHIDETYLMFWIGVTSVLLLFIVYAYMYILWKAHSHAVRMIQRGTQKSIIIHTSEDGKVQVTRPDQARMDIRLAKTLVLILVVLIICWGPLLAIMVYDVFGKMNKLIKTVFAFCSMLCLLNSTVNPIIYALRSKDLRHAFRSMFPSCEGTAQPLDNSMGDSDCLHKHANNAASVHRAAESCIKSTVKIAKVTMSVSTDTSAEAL
Assay: In vitro functional assay (FLIPR, intracellular Ca2+) with recombinant HEK293 cells, CB1
Format: cell-based
Design: expressed in transfected cells; host or cells: HEK293
Settings: recombinant HEK293 cells expressing CB1 and Galpha16; 20 min preincubation, then reference agonist; Ca2+ change; read-out: hCB1R: FLIPR; IC50
From the text: In Vitro Functional Assays with Recombinant Cells:

Structure (SMILES) | IC50 [nM]
CC1(C)C(=O)N(c2ccc(F)c(C(F)(F)F)c2)C(=O)N1Cc1ccc(F)cc1Nc1ccc2c(c1)C(=O)CC2 [Example 205, 1-[4-fluoro-2-(3-oxoindan-5-ylamino)benzyl]-3-(4-fluoro-3-trifluoromethylphenyl)-5,5-dimethylimidazolidine-2,4-dione] | 17
CC1(C)C(=O)N(c2ccc(C#N)c(C(F)(F)F)c2)C(=O)N1Cc1ccccc1Nc1ccc(N)cc1 [Example 113, 4-{3-[2-(4-Aminophenylamino)benzyl]-4,4-dimethyl-2,5-dioxoimidazolidin-1-yl}-2-trifluoromethylbenzonitrile] | 4
CC1(C)C(=O)N(c2ccnc(C(F)(F)F)c2)C(=O)N1Cc1ccccc1Nc1ccccc1 [Example 65, 5,5-Dimethyl-1-(2-phenylaminobenzyl)-3-(2-trifluoromethylpyridin-4-yl)imidazolidine-2,4-dione] | 145
CC1(C)C(=O)N(c2ccc(F)c(C(F)(F)F)c2)C(=O)N1Cc1ccc(F)cc1Nc1ccc(F)nc1 [Example 254, 1-[4-Fluoro-2-(6-fluoropyridin-3-ylamino)benzyl]-3-(4-fluoro-3-trifluoromethylphenyl)-5,5-dimethylimidazolidine-2,4-dione] | 2
CC1(C)C(=O)N(c2ccc(C#N)c(C(F)(F)F)c2)C(=O)N1Cc1ccccc1Nc1ccc(C(C(=O)O)C(=O)O)cc1 [Example 238, 2-(4-{2-[3-(4-cyano-3-trifluoromethylphenyl)-5,5-dimethyl-2,4-dioxoimidazolidin-1-ylmethyl]phenylamino}phenyl)malonic acid] | 10
CC(C(=O)O)(C(=O)O)c1ccc(Nc2ccccc2CN2C(=O)N(c3ccc(C#N)c(C(F)(F)F)c3)C(=O)C2(C)C)cc1 [Example 233, 2-(4-{2-[3-(4-Cyano-3-trifluoromethylphenyl)-5,5-dimethyl-2,4-dioxoimidazolidin-1-ylmethyl]phenylamino}phenyl)-2-methylmalonic acid] | 22
CC1(C)C(=O)N(c2ccc(C#N)c(C(F)(F)F)c2)C(=O)N1Cc1ccccc1Nc1ccc(C(=O)NCCS(=O)(=O)O)cc1 [Example 164, 2-(4-{2-[3-(4-Cyano-3-trifluoromethylphenyl)-5,5-dimethyl-2,4-dioxoimidazolidin-1-ylmethyl]phenylamino}benzoylamino)ethanesulfonic acid] | 137
COc1ccc(CN2C(=O)N(c3ccc(C#N)c(C(F)(F)F)c3)C(=O)C2(C)C)c(Nc2ccc(C(=O)O)cc2)c1 [Example 130, 4-{2-[3-(4-cyano-3-trifluoromethylphenyl)-5,5-dimethyl-2,4-dioxoimidazolidin-1-ylmethyl]-5-methoxyphenylamino}benzoic acid] | 32
CC1(C)C(=O)N(c2ccc(C#N)c(C(F)(F)F)c2)C(=O)N1Cc1ccccc1Nc1ccc(C(=O)O)c(O)c1 [Example 243] | 99
CC1(C)C(=O)N(c2ccc(F)c(C(F)(F)F)c2)C(=O)N1Cc1ccc(F)cc1Nc1ccc2c(c1)C(=O)CCC2 [Example 204, 1-[4-Fluoro-2-(8-oxo-5,6,7,8-tetrahydronaphthalen-2-ylamino)benzyl]-3-(4-fluoro-3-trifluoromethylphenyl)-5,5-dimethylimidazolidine-2,4-dione] | 46
CC(C)Oc1ccc(Nc2ccccc2CN2C(=O)N(c3ccc(C#N)c(C(F)(F)F)c3)C(=O)C2(C)C)cc1 [Example 127, 4-{3-[2-(4-isopropoxyphenylamino)benzyl]-4,4-dimethyl-2,5-dioxoimidazolidin-1-yl}-2-trifluoromethylbenzonitrile] | 7
CC1(C)C(=O)N(c2ccc(C#N)c(-c3ccc(Cl)cc3)c2)C(=O)N1Cc1ccc(F)cc1Nc1ccc(C(=O)O)cc1 [Example 228, 4-{2-[3-(4′-chloro-6-cyanobiphenyl-3-yl)-5,5-dimethyl-2,4-dioxoimidazolidin-1-ylmethyl]-5-fluorophenylamino}benzoic acid] | 61
CC1(C)C(=O)N(c2ccc(C#N)c(C(F)(F)F)c2)C(=O)N1Cc1ccccc1Nc1cnc(O)nc1O [Example 246, 4-{3-[2-(2,4-Dihydroxypyrimidin-5-ylamino)benzyl]-4,4-dimethyl-2,5-dioxoimidazolidin-1-yl}-2-trifluoromethylbenzonitrile] | 7
CC(C)(C)c1cc(N2C(=O)N(Cc3ccc(F)cc3Nc3ccc(F)cc3F)C(C)(C)C2=O)ccc1C#N [Example 221, 2-tert-butyl-4-{3-[2-(2,4-difluorophenylamino)-4-fluorobenzyl]-4,4-dimethyl-2,5-dioxoimidazolidin-1-yl}benzonitrile] | 10
COc1ncc(Nc2ccccc2CN2C(=O)N(c3ccc(C#N)c(C(F)(F)F)c3)C(=O)C2(C)C)cn1 [Example 180, 4-{3-[2-(2-methoxypyrimidin-5-ylamino)benzyl]-4,4-dimethyl-2,5-dioxoimidazolidin-1-yl}-2-trifluoromethylbenzonitrile] | 1
CC(C)(C)OC(=O)c1ccc(Nc2cc(F)ccc2CN2C(=O)N(c3ccc(C#N)c(C(F)(F)F)c3)C(=O)C2(C)C)cc1 [Example 125, tert-butyl 4-{2-[3-(4-cyano-3-trifluoromethylphenyl)-5,5-dimethyl-2,4-dioxoimidazolidin-1-ylmethyl]-5-fluorophenylamino}benzoate] | 110
CC1(C)C(=O)N(c2ccc(C#N)c(C(F)(F)F)c2)C(=O)N1Cc1ccccc1Nc1ccc2cc(C(=O)O)ccc2c1 [Example 209, 6-{2-[3-(4-cyano-3-trifluoromethylphenyl)-5,5-dimethyl-2,4-dioxoimidazolidin-1-ylmethyl]phenylamino}naphthalene-2-carboxylic acid] | 62
CC1(C)C(=O)N(c2ccc(C#N)c(C(F)(F)F)c2)C(=O)N1Cc1cccc(Cl)c1Nc1ccc(Cl)cc1 [Example 43, 4-{3-[5-chloro-6-(4-chlorophenylamino)benzyl]-4,4-dimethyl-2,5-dioxoimidazolidin-1-yl}-2-trifluoromethylbenzonitrile] | 77
COC(=O)c1ccc(Nc2cc(F)ccc2CN2C(=O)N(c3ccc(F)c(C(F)(F)F)c3)C(=O)C2(C)C)cc1 [Example 154, Methyl 4-{5-fluoro-2-[3-(4-fluoro-3-trifluoromethylphenyl)-5,5-dimethyl-2,4-dioxoimidazolidin-1-ylmethyl]phenylamino}benzoate] | 8
COC(=O)C(Cc1ccc(Nc2ccccc2CN2C(=O)N(c3ccc(C#N)c(C(F)(F)F)c3)C(=O)C2(C)C)cc1)C(=O)OC [Example 232, Dimethyl 2-(4-{2-[3-(4-cyano-3-trifluoromethylphenyl)-5,5-dimethyl-2,4-dioxoimidazolidin-1-ylmethyl]phenylamino}benzyl)malonate] | 112
CC1(C)C(=O)N(c2ccc(C#N)c(C(F)(F)F)c2)C(=O)N1Cc1c(Cl)cc(Cl)cc1Nc1ccc(C(=O)O)cc1 [Example 105, 4-{3,5-dichloro-2-[3-(4-cyano-3-trifluoromethylphenyl)-5,5-dimethyl-2,4-dioxoimidazolidin-1-ylmethyl]phenylamino}benzoic acid] | 49
CC1(C)C(=O)N(c2ccc(C#N)c(C(F)(F)F)c2)C(=O)N1Cc1cc(Cl)ccc1Nc1ccc(F)cc1 [Example 41, 4-{3-[5-Chloro-2-(4-fluorophenylamino)benzyl]-4,4-dimethyl-2,5-dioxoimidazolidin-1-yl}-2-trifluoromethylbenzonitrile] | 28
COC(=O)CN(CC(=O)OC)c1ccc(Nc2ccccc2CN2C(=O)N(c3ccc(C#N)c(C(F)(F)F)c3)C(=O)C2(C)C)cc1 [Example 178] | 4
CC1(C)C(=O)N(c2ccc(F)c(C(F)(F)F)c2)C(=O)N1Cc1ccc(F)cc1Nc1ccc(S(C)(=O)=O)cc1 [Example 213, 1-[4-fluoro-2-(4-methanesulfonylphenylamino)benzyl]-3-(4-fluoro-3-trifluoromethylphenyl)-5,5-dimethylimidazolidine-2,4-dione] | 117
CC1(C)C(=O)N(c2ccc(C#N)c(C(F)(F)F)c2)C(=O)N1Cc1ccc(C(F)(F)F)cc1Nc1ccc(C(=O)O)cc1 [Example 107, 4-{2-[3-(4-cyano-3-trifluoromethylphenyl)-5,5-dimethyl-2,4-dioxoimidazolidin-1-ylmethyl]-5-trifluoromethylphenylamino}benzoic acid] | 112
CC1(C)C(=O)N(c2ccc(C#N)c(C(F)(F)F)c2)C(=O)N1Cc1ccccc1Nc1ccc(O)cc1 [Example 135, 4-{3-[2-(4-Hydroxyphenylamino)benzyl]-4,4-dimethyl-2,5-dioxoimidazolidin-1-yl}-2-trifluoromethylbenzonitrile] | 1
CC1(C)C(=O)N(c2ccc(F)c(C(F)(F)F)c2)C(=O)N1Cc1ccc(F)cc1Nc1ccc2c(c1)C(=O)CCO2 [Example 239, 1-[4-fluoro-2-(4-oxochroman-6-ylamino)benzyl]-3-(4-fluoro-3-trifluoromethylphenyl)-5,5-dimethylimidazolidine-2,4-dione] | 103
Cc1cc(N2C(=O)N(Cc3ccc(F)cc3Nc3ccc(C(=O)O)cc3)C(C)(C)C2=O)ccc1C#N [Example 166, 4-{2-[3-(4-cyano-3-methylphenyl)-5,5-dimethyl-2,4-dioxoimidazolidin-1-ylmethyl]-5-fluorophenylamino}benzoic acid] | 76
CC1(C)C(=O)N(c2ccc(C#N)c(C(F)(F)F)c2)C(=O)N1Cc1ccccc1Nc1ccc2c(c1)COC2=O [Example 201, 4-{4,4-dimethyl-2,5-dioxo-3-[2-(1-oxo-1,3-dihydroisobenzofuran-5-ylamino)benzyl]imidazolidin-1-yl}-2-trifluoromethylbenzonitrile] | 5
CC1(C)C(=O)N(c2ccc(C#N)c(C(F)(F)F)c2)C(=O)N1Cc1ccccc1Nc1ccccc1F [Example 44, 4-{3-[2-(2-fluorophenylamino)benzyl]-4,4-dimethyl-2,5-dioxoimidazolidin-1-yl}-2-trifluoromethylbenzonitrile] | 7

Reference: patent publication US7759366B2 (Sanofi-Aventis, priority 2006, dated 2010)
